The text below walks through data of patent publication US4438091A, “Bromhexine delayed-release pharmaceutical form” (Dr. Karl Thomae GmbH, priority 1981, dated 1984).

Values after ≈ are worked out from the molar mass of the structure shown. “Also recorded” adds a separate entry of the source. Where a name gives a salt, the structure may show the parent alone.

Data set [1] in a line: Absorption of bromhexine from the intestinal tract (preliminary tests in vivo). The note with it: for absorption from the intestinal tract: micronized, introduced by preparation resistant to gastric juices. The text has this:
In view of the obvious advantages of producing a delayed-release form of bromhexine, there has been no shortage of attempts to produce such a preparation. […] In cases such as this, success is often achieved if the active substance is mixed with an emulsifier which then releases the active substance in solubilized form in the intestinal juices.

For data set [2] the following is noted: cited from earlier work.
The nature of data set [3]: Solubility of bromhexine base in phosphate buffer / aqueous medium. The following applies: for solubility: aqueous buffer. The class given is physicochemical. The source says: If, for example, bromhexine hydrochloride is made into the form of a matrix-type delayed-release tablet (Example 11), bromhexine can only be released, in dissolved form, from this preparation as long as the tablet is in the acidic medium of the stomach. […] The intestinal juices momentarily buffer the acid salts to form a substantially insoluble bromhexine base.

Take `CN(Cc1cc(Br)cc(Br)c1N)C1CCCCC1` [bromhexine, N-cyclohexyl-N-methyl-(2-amino-3,5-dibromobenzyl)-amine]: the “absorption rate along the intestine” value in data set [1] (dissolved bromhexine in various intestinal sections, duodenum to colon) was “decreases sharply from the duodenum to the colon; also recorded: absorbed particularly quickly in the uppermost section of the intestines; also recorded: decreases significantly in the lower intestinal regions”. For the same compound, the “frequency of coughing, total number of coughing spasms and intensity of the cough” value in data set [2] (in vivo) was “favorably affected”. Besides, the “therapeutic effect in diseases of the respiratory tract” value in data set [2] (pathological change in secretion, single or double blind testing) is reported as “often been confirmed”. Further, the breathing result in data set [2] (patients' finding) is “breathing is eased”. For the same compound, in data set [3] (above a pH of 4 / from pH 4.0), the Solubility in water result is “virtually insoluble in water; also recorded: virtually insoluble from pH 4.0”. The “Solubility in aqueous medium” value in data set [3] (acidic range) is on record as “soluble only in the acidic range”. For the same compound, the solubility in data set [3] (pH 4.5, phosphate buffer) is 650 µg/mL (≈ 1730 µM); in data set [3] (pH 5.0, phosphate buffer) it was 150 µg/mL (≈ 399 µM); in data set [3] (pH 6.0, phosphate buffer), 30 µg/mL (≈ 79.8 µM); in data set [3] (pH 6.5, phosphate buffer) it was 10 µg/mL (≈ 26.6 µM); in data set [3] (pH 7.0, phosphate buffer), 3 µg/mL (≈ 7.98 µM).
In the case of `CN(Cc1cc(Br)cc(Br)c1N)C1CCCCC1` [micronized bromhexine hydrochloride], the “absorption from the intestinal tract” value in data set [1] is recorded as “did not result in any appreciable absorption”.
Still for that read-out and setting: with `CN(Cc1cc(Br)cc(Br)c1N)C1CCCCC1` [micronized bromhexine] the entry was “not absorbed”.

Broadly, the solubility is the concentration that dissolves in the medium under given conditions. Read a low solubility as a poorly soluble substance.
